The subject of data set [1] is chorioallantoic membranes (CAM) of 7-days old chicken embryos incubated with murine mammary carcinoma Cl-66 cells. The following applies: 3-day incubation. On the procedure: The chorioallantoic membranes (CAM) of 7-days old chicken embryos were incubated with each 10^5 cells of the murine mammary carcinoma Cl-66 24 hours prior to a 3-day incubation with disks containing either 5 μg of Doxorubicin, 5 μg of Dox equivalent in nanoparticles (14/1/1 IMMA/NOBA/NaA, PEG3400), 5 μg of Dox equivalent in nanoparticles functionalized with cyclic-RGD (14/1/1 IMMA/NOBA/NaA, PEG3400-cRGD), or PBS as a control. Linker attachment to nanoparticles was made as described in Example 31.
After 3 days, CAMs were excised and photographed for analysis.

For data set [2], the system named is CL66 murine mammary carcinoma cells.
Procedure: The efficacy and toxicity of nano-article-conjugated doxorubicin (Dox-NP) was compared to doxorubicin (Dox) and a saline control. Dox-NP of composition 14/1/1 IMMA/CiBA/NaA, 5.6 w % Dox were made following procedures described in Example 16.
CL66 murine mammary carcinoma cells were grown to 80-90% confluence in supplemented media, trypsinized for 2 min at 37° C. with 1× trypsin, rinsed with Hank's Balanced Salt Solution (w/out calcium and magnesium) and resuspended at 1×10^6 cell/ml, with 0.1 ml injected into the mammary fat pad of female Balb/C mice.
Lyophilized Dox-NP was reconstituted in sterile PBS at the appropriate concentration and stored at 2-8° C. for at least 1 hour, or overnight. Excipient Dox was diluted in PBS at the appropriate concentrations. 200 μL was injected intravenously through the tail vein of the mice on days 13, 15, and 18 following tumor challenge. Dox was injected at 225 μg/animal, while Dox-NP was injected at a nano-article level sufficient to deliver Dox at 250, 420 and 560 μg/animal.
Tumor volumes were measured superficially in two dimensions. Weight loss (or gain) and survival were recorded.
Data set [3] deals with C-32 cells (human melanoma). Briefly: In vitro cytotoxicity, MTT cell proliferation assay. Format: cell-based. The following applies: 48 hours, free drug.
Procedure: The toxicity of Dox linked to the nanoarticles via the amide bond was tested in an in vitro toxicity assay against C-32 cells (human melanoma).
In a 96-well tissue culture microtiter plate, 10,000 cells of C-32 per well in culture medium were allowed to attach for 2 hours prior to incubation with varying concentrations of Dox-amide nanoarticle, and free Dox. Cells were incubated at 37° C., 5% CO2 in a humidified chamber for 48 hours. Cell proliferation was assayed using the calorimetric MTT kit (CT01, Chemicon, Int.).
The toxicity of Dox linked to the nanoarticles via the hydrazone bond was tested in an in vitro toxicity assay against C-32 cells (human melanoma).
In a 96-well tissue culture microtiter plate, 10,000 cells of C-32 per well in culture medium were allowed to attach for 2 hours prior to incubation with varying concentrations of Dox-hydrazone nanoarticle, and free Dox. Cells were incubated at 37° C., 5% CO2 in a humidified chamber for 48 hours. Cell proliferation was assayed using the calorimetric MTT kit (CT01, Chemicon, Int.).

On to `COc1cccc2c1C(=O)c1c(O)c3c(c(O)c1C2=O)C[C@@](O)(C(=O)CO)C[C@@H]3O[C@H]1C[C@H](N)[C@H](O)[C@H](C)O1` [Doxorubicin], for which, in data set [1] (disks with 5 μg Dox or Dox equivalent), the “reduction of the number of blood vessels / blood vessel distribution around the disk” value is reported as “most effective in reducing the number of blood vessels”. Besides, the “embryos died during treatment” value in data set [1] (disks with 5 μg) is listed as 3 out of 10. Further, in data set [2] (225 μg/animal Dox compared with the higher doses of Dox-NP), the survival time result is given as “slightly longer survival time”. Also, the toxicity entry in data set [2] (225 μg/animal i.v. on days 13, 15, 18) is given as “toxic”. Moreover, in data set [3], the 50% growth inhibition stood at 0.8 µg/mL.

For the origin of these results see patent publication US20050129769A1, “Polymeric articles for carrying therapeutic agents” (priority 2002, published 2005).
